Converted amounts (≈) assume the structure as drawn. Where two headings read alike, the source gives them in different places.
Columns and labels:
[1] = test system: mouse middle cerebral artery occlusion (MCAo) model; assay: Mouse MCAo stroke model, survival; type: in vivo; settings: 2 mg/kg i.p. loading dose plus 1 mg/ml at 8 μl/h pump, versus saline, P<0.05
Method: To mimic this injury in mice, an intraluminal monofilament model of middle cerebral artery occlusion (MCAo) is used. Occlusion is achieved by inserting a surgical filament into the external carotid artery (ECA) and threading it forward into the internal carotid artery (ICA) until the tip blocks the origin of the MCA. […] This technique is used to study a temporary occlusion in which the MCA is blocked for one hour.
Survival—Mice are treated with Compound 5 using a 2 mg/kg i.p. loading dose and 1 mg/ml at 8 μl/h maintenance dose (delivered by an i.p. osmotic pump) of Compound 5, or given saline (controls; n=17) using an identical approach.

[2] = test system: mouse middle cerebral artery occlusion (MCAo) model; assay: Mouse MCAo stroke model, cerebral edema by MRI and neurological outcome
Method: To mimic this injury in mice, an intraluminal monofilament model of middle cerebral artery occlusion (MCAo) is used. Occlusion is achieved by inserting a surgical filament into the external carotid artery (ECA) and threading it forward into the internal carotid artery (ICA) until the tip blocks the origin of the MCA. […] This technique is used to study a temporary occlusion in which the MCA is blocked for one hour. The filament is then removed allowing reperfusion to occur for 24 hours before the animal's brain was imaged using T2-weighted scans in a 9.4 T Bruker MRI scanner at the Case Center for Imaging Research (FIG. 10).
Cerebral Edema—Mice are given saline or treated with Compound 5 by multi-dosing at 5 mg/kg i.p. every three hours (n=8 per treatment). […] Ipsilateral and contralateral hemispheric volume is measured from the T2-weighted MR images of mice 24 hours post-icus. Relative change in hemispheric volume is calculated as a percent of the difference between ipsilateral brain volume (Vi) and contralateral brain volume (Vc) relative to the contralateral brain volume (Percent Change in Hemispheric Brain Volume=((Vi−Vc)/Vc)×100%.
Neurological Outcome—In the same experiment as above, animals are scored for neurological outcome on a simple 5 point scale described in Manley, G. T. et al., Aquaporin-4 Deletion in Mice Reduces Brain Edema After Acute Water Intoxication and Ischemic Stroke, Nature Medicine, 6, 159-163 (2000).

[3] = test system: mouse water toxicity model (cerebral edema); assay: Mouse water toxicity model, brain volume by MRI
Method: The first time point at 5.67 min coincides with the scan slice at the middle of the brain during the first post-injection scan. Other time points are placed in a similar manner. The data is fitted to a single exponential equation: V/V0=Vi+dVmax(1−e^(−kt)); • where V/V0=relative brain volume, Vi=initial relative brain volume, dVmax=maximum change in relative brain volume, k=first order rate constant (min^−1), and t=time in minutes.
Mouse Water Toxicity Model—Brain Volume by Magnetic Resonance Imaging (MRI): MRI is used to measure changes in brain volume in response to water shock, using the water toxicity model. As described for the survival and brain water content studies above, mice are injected, IP, with a water bolus alone or water bolus and test compound at 0.76 mg/kg, and changes in brain volume as detected by MRI are monitored. […] High resolution T2-weighted sagittal scans (resolution=0.1 mm×0.1 mm×0.7 mm) of the mouse head are obtained prior to water injection, 5.67 min post water injection, and then every 5.2 minutes until the animal expires from the water loading. […] The cross sectional area of the brain in each imaging slice is measured by manual region-of-interest selection using ImageJ. Brain volumes are then calculated for each scan by summing the individual cross sectional brain areas and multiplying by the slice thickness (0.7 mm).

AQP = AQP inhibition cell-based assay (Table 1)
Method: (§1) Structure activity relationships (SARs) are determined by assaying analogues of selected hits to guide chemistry for the preparation of new molecules to be tested for improved potency. For this iterative process we use a quantitative kinetic assay—the Aquaporin-Mediated Cell Volume Change Assa—in a 96-well multiplate reader. It detects changes in light scattering by a monolayer of CHO cells expressing the desired AQP as they shrink when exposed to hypertonic solution (300 mOsm→530 mOsm). FIG. 1 depicts the aquaporin-mediated cell volume change assay with AQP4 expressing cells (FIG. 1A) and AQP2 expressing cells (FIG. 1B). The cells expressing aquaporins shrink more rapidly than control cells, due to enhanced water flow, which shrinkage can be inhibited by a compound that inhibits the aquaporin.

AQP2 = biological target: T1, AQP2 (Homo sapiens, UniProt P41181); assay: Aquaporin-Mediated Cell Volume Change Assay, CHO cells expressing AQP2; type: cell-based; settings: 10 μM, stable CHO cell line, FIG. 2
T1 construct: expressed in transfected cells
T1 sequence (P41181 1-271): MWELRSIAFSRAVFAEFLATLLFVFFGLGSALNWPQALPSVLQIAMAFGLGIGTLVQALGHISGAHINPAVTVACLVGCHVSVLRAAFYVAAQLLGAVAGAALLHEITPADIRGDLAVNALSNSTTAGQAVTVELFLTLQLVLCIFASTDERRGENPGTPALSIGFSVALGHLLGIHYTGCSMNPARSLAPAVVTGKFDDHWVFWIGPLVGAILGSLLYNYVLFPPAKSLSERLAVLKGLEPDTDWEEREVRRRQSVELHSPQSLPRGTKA
Method: as §1
(§2) In FIG. 1, aquaporin-expressing cells are shown in the presence of DMSO (triangles) or in the presence of the test compound (here, Compound 3) at 10 μM (squares), along with CHO-CD81 expressing control cells in the presence of DMSO (diamonds). Each curve represents an average of 16 wells in the 96-well plate.
(§3) In FIG. 1A, when the AQP4b cells treated with DMSO are exposed to hypertonic shock, the cells show rapid shrinking, giving a rise in light scattering (increasing relative change in absorbance, Abs/Abs0) followed by a decay as cells detach from the plate. […]

AQP4 = assay: Aquaporin-Mediated Cell Volume Change Assay, CHO cells expressing AQP4 (AQP4b); type: cell-based; settings: 10 μM, stable CHO cell line, FIG. 2
Method: as §1, §2, §3

AQP1 = biological target: T2, AQP1 (Homo sapiens, UniProt P29972); assay: Aquaporin-Mediated Cell Volume Change Assay, CHO cells expressing AQP1 (specificity); type: cell-based; settings: 10 μM, stable CHO cell line, FIG. 2
T2 construct: expressed in transfected cells
T2 sequence (P29972 1-269): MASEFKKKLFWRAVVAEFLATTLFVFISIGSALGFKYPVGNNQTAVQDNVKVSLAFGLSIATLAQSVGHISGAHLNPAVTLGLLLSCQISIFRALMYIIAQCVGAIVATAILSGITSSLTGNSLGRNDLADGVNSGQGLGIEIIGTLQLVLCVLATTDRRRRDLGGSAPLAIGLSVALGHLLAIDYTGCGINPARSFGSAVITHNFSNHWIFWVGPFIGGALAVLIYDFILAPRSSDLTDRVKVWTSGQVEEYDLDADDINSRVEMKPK
Method: as §1
(§4) The specificity of the compounds is tested against the most closely related of the 13 known aquaporins: AQP1, AQP2, AQP5 and both splice variants of AQP4 (A and B). A stable CHO cell line is created for each of the above aquaporins and the inhibition of water permeability using the Aquaporin-Mediated Cell Volume Change Assay with 10 μM Compound 3 is tested.

AQP5 = biological target: T3, AQP5 (Homo sapiens, UniProt P55064); assay: Aquaporin-Mediated Cell Volume Change Assay, CHO cells expressing AQP5 (specificity); type: cell-based; settings: 10 μM, stable CHO cell line, FIG. 2
T3 construct: expressed in transfected cells
T3 sequence (P55064 whole entry): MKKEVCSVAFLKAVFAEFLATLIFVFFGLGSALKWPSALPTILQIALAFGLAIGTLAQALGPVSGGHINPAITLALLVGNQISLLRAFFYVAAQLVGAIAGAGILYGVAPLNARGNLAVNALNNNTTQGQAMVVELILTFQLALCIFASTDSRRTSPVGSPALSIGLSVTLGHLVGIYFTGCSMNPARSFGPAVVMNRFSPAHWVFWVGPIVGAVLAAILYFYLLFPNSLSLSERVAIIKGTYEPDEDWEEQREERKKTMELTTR
Method: as §1, §4

purified AQP4b = purified AQP4b (Homo sapiens, UniProt P55087); assay: Hummel-Dryer style binding assay with [3H]-Compound 4 and purified AQP4b; settings: for Kd: detergent buffer, 1 μM [3H]-Compound 4, read-out: relative affinity
Sequence of purified AQP4b (P55087 23-323): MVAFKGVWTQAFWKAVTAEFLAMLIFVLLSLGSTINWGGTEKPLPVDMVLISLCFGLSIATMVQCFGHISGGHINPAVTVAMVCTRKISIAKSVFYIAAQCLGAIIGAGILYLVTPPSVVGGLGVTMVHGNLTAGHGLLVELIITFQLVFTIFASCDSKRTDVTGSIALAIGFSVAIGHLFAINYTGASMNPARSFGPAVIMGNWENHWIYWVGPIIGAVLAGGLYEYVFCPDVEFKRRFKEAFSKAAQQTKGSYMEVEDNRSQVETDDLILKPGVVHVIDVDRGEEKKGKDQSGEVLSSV
Method: To support the mechanism of action by which phenylbenzamides directly block AQP4, we perform in vitro binding studies using purified AQP4b and Compound 4 radiolabeled with ^3H. Using a Hummel-Dryer style assay, a gel filtration column is equilibratrated with buffer containing detergent, to maintain solubility of AQP4b, and 1 μM [^3H]-Compound 4. AQP4b is diluted to 250 μM in this column buffer and incubated at RT for 30 min. The sample is then applied to the column, fractions collected and the presence of [^3H]-Compound 4 detected by liquid scintillation counting. […] The rise in [^3H]-Compound 4 from a baseline value of 1 μM represents binding to each of these proteins.

[4] = Bioconversion in mouse plasma in vitro; type: in vitro ADME

## O=C(Nc1cc(C(F)(F)F)cc(C(F)(F)F)c1)c1cc(Cl)ccc1OP(=O)(O)O [Compound 5]
Solubility in water
  solubility: 1000 µg/mL (≈ 2160 µM)
[1]
  improvement in overall survival at 24 h: 29.4%
[2]; 5 mg/kg i.p. every three hours
  neurological progression (in words): did not progress into a state of severe paralysis or death
[2]; 5 mg/kg i.p. every three hours, 24 hours after MCAo, ±SEM, control 13.4%±1.9%
  relative change in ipsilateral brain volume: 4.2±1.7%
[2]; 5 mg/kg i.p. every three hours, versus control
  reduction in brain swelling after MCAo: 3.2 fold
[2]; 5 point scale, P=0.025, control 2.77±0.66
  average neurological score: 0.88±0.31

## O=C(Nc1ccccc1)c1ccccc1 [Phenylbenzamide, reference compound]
[3]; 0.39 mg/kg
  reduction in the rate of CE (in words): fails to show reduction
AQP
  AQP Inhibition Cell-Based Assay: 4.5%

## O=C(Nc1cc(C(F)(F)F)cc(C(F)(F)F)c1)c1cc(Cl)ccc1O [Compound 1, N-(3,5-Bis-trifluoromethyl-phenyl)-5-chloro-2-hydroxy-benzamide]
Solubility in water
  solubility: 3.8 µg/mL (≈ 9.9 µM)
[3]; 0.76 mg/kg
  extent of CE during the period of observation (in words): reduced
Taken from the mouse water toxicity model
  expected efficacious plasma concentration: 20 ng/mL

## O=C(Nc1cc(Cl)cc(Cl)c1)c1cc(Cl)ccc1O [Compound 3]
AQP2
  inhibition of water permeability (in words): inhibits
AQP4
  inhibition of water permeability (in words): inhibits
AQP1
  inhibition of water permeability (in words): poorly inhibits
AQP5
  inhibition of water permeability (in words): poorly inhibits

## O=C(Nc1cc(C(F)(F)F)cc(C(F)(F)F)c1)c1cc(C(F)(F)F)ccc1O [Compound 4, N-[3,5-bis(trifluoromethyl)phenyl]-2-hydroxy-5-(trifluoromethyl)benzamide]
Purified AQP4b; monomeric AQP4b
  Kd: < 1 µM
Purified AQP4b; solubilized AQP4b
  binding to solubilized AQP4b (in words): relatively weak binding
Purified AQP4b; tetrameric AQP4b
  Kd: ~100 µM

## O=C(Nc1cc(C(F)(F)F)cc(C(F)(F)F)c1)c1cc(Cl)ccc1OP(=O)(O)O
[4]; added to mouse plasma in vitro
  bioconversion to Compound 1 (in words): rapid bioconversion
[4]; mouse plasma in vitro, 20° C.
  time sufficient to render the salt undetectable: Less than 5 minutes
IP injection
  level of the salt in plasma samples of mice injected IP (in words): undetectable
IP injection, Compound 1 detected in plasma
  bioavailability and conversion to Compound 1 (in words): good bioavailability and near-complete conversion

From patent publication US9949991B2, “Methods of treating aquaporin-mediated conditions” (Aeromics, Inc., priority 2013, dated 2018)
